{
  "source": "patent US9316644B2",
  "about": "“Method for establishing the sensitivity of tumours to capecitabin and test kit” (SANOXSYS GMBH, priority 2006, dated 2016)",
  "origin": "cited, not measured here",
  "key": {"[1]": {"tested_on": "metastatic mamma carcinoma"}, "[2]": {"tested_on": "metastatic mamma carcinomas"}, "[3]": {"tested_on": "metastatic mamma carcinomas", "conditions": "for median reaction duration: in vivo; for ORR (overall response): second line after anthracycline failure"}, "[4]": {"tested_on": "progressive mamma carcinoma", "conditions": "of 25 patients; continuous low-dose 5-FU"}, "[5]": {"conditions": "68 patients evaluable for effectivity"}},
  "note": "Read-outs that look alike come from different tables or passages of the source.",
  "data": [
    {"smiles": "CCCCCOC(=O)Nc1nc(=O)n(C2OC(C)C(O)C2O)cc1F", "note": "(centres unmarked) [capecitabine, Pentyl[1-(3,4-dihydroxy-5-methyl-tetrahydrofuran-2-yl)-5-fluoro-2-oxo-1H-pyrimidin-4-yl]aminomethanoat]", "values": [
      {"measurement": "complete remission", "setting": "[1]; [5]", "result": 3, "unit": "%"},
      {"measurement": "partial remission", "setting": "[1]; [5]", "result": 22, "unit": "%"},
      {"measurement": "diarrhea", "setting": "[1]; CTC degree 1 and 2", "result": 21, "unit": "%"},
      {"measurement": "lethargy", "setting": "[1]; CTC degree 1 and 2", "result": 18, "unit": "%"},
      {"measurement": "nausea and vomiting", "setting": "[1]; CTC degree 1 and 2", "result": 38, "unit": "%"},
      {"measurement": "hand and foot syndrome", "setting": "[1]; CTC degree 1 and 2, 1250 mg/m^2 twice a day for 14 days, 7-day break, 77 patients evaluable", "result": 40, "unit": "%"},
      {"measurement": "hand and foot toxicity", "setting": "[1]; degree 3", "result": 14, "unit": "%"},
      {"measurement": "stabilization of the disease", "setting": "[1]; in vivo", "result": 47, "unit": "%"},
      {"measurement": "tumor control", "setting": "[1]; patients with intensive previous treatment", "result": 72, "unit": "%"},
      {"measurement": "mean remission duration", "setting": "[2]; human, in vivo", "result": 241, "unit": "days"},
      {"measurement": "median survival", "setting": "[2]; human, in vivo", "result": 384, "unit": "days"},
      {"measurement": "median time until progression", "setting": "[2]; human, in vivo", "result": 93, "unit": "days"},
      {"measurement": "patients with stable sequence of the illness", "setting": "[2]; human, in vivo", "result": 43, "unit": "%"},
      {"measurement": "therapy-induced fatalities", "setting": "[2]; human, in vivo", "result": "did not occur"},
      {"measurement": "objective remission rate", "setting": "[2]; intend to treat evaluation, 162 patients, 2510 mg/m^2/day for 14 days, 7-day break", "result": 20, "unit": "%"},
      {"measurement": "tolerability", "setting": "[2]; no pre-medication or primary prophylaxis necessary", "result": "excellent tolerability profile"},
      {"measurement": "patients whose pain was reduced by more than 50%", "setting": "[2]; of 51 patients with pain figure above 20 mm on analogue pain scale at start", "result": 47, "unit": "%"},
      {"measurement": "reaction rate", "setting": "[2]; sub-group of 42 anthracycline and paclitaxel therapy refractory patients", "result": 29, "unit": "%"},
      {"measurement": "median reaction duration", "setting": "[3]", "result": 9.4, "unit": "months"},
      {"measurement": "ORR (overall response)", "setting": "[3]", "result": 36, "unit": "%"},
      {"measurement": "combination effect", "setting": "with CPT-11, Tomudex, Mitomycin C or Cyclophosphamide", "result": "additive"},
      {"measurement": "combination effect", "setting": "with Paclitaxel or Docetaxel", "result": "supra-additive"},
      {"measurement": "combination effect", "setting": "with a radiation therapy", "result": "Synergetic effects"}
    ]},
    {"smiles": "O=c1[nH]cc(F)c(=O)[nH]1", "note": "[5-FU, 5-Fluorouracil]", "values": [
      {"measurement": "patients achieving an objective reaction", "setting": "[4]", "result": 8, "unit": "patients"}
    ]},
    {"smiles": "CC(=O)O[C@H]1C(=O)[C@@]2(C)[C@H]([C@H](OC(=O)c3ccccc3)[C@]3(O)C[C@H](OC(=O)[C@H](O)[C@@H](NC(=O)c4ccccc4)c4ccccc4)C(C)=C1C3(C)C)[C@]1(OC(C)=O)CO[C@@H]1C[C@@H]2O", "note": "[Paclitaxel]", "values": [
      {"measurement": "median reaction duration", "setting": "[3]", "result": 9.4, "unit": "months"},
      {"measurement": "ORR (overall response)", "setting": "[3]", "result": 21, "unit": "%"}
    ]}
  ]
}
